According to patent US9670206B2, “Pyrido[4,3-B]pyrazine-2-carboxamides as neurogenic agents for the treatment of neurodegenerative disorders” (Hoffmann-La Roche Inc., priority 2013, dated 2017):

test system: human embryonic stem cell derived neural stem cells (NSCs); test: Neural stem cell proliferation assay (neurogenesis assay, ATP levels by CellTiterGlo); format: cell-based; conditions: 96 h, compound concentration at which 150% activity of control (100%) is reached, NSC proliferation, ATP readout after 4 days incubation
Experimental: Neural Stem Cell Proliferation Assay
Neurogenic properties of small molecules are determined based on the proliferation of human embryonic stem cell derived neural stem cells (NSCs) which were derived via a dual smad inhibition as previously described (Chambers, S. M., et al., Highly efficient neural conversion of human ES and iPS cells by dual inhibition of SMAD signaling, Nature biotechnology, 2009. 27(3): p. 275-80.) Compounds respond is measured by the increase in cells based on ATP levels (Promega:CellTiterGlo®) after an incubation period of 4 days. NSCs are thawed and expanded over 3 passages. On the 14th day, NSCs are seeded in Polyornithin/Laminin coated 384 well plates at a cell density of 21,000 cells/cm^2 in a media volume of 38 μl. 4 hours after cell seeding, compound solutions are added at a volume of 2 μl. Stock solutions of the compounds (water, 5% DMSO) are diluted to obtain a dose response (11 points, dilution factor is 2), ranging from 8 μM to 8 nM. Controls are run to consistently determine the neurogenic properties of the cells: Negative (neutral) control is cell culture Media (final DMSO concentration: 0.25%). Positive controls are: • 1. cell culture Media+100 ng/ml FGF2 (final DMSO concentration: 0.1%) • 2. cell culture Media+20 ng/ml EGF (final DMSO concentration: 0.1%) • 3. cell culture Media+100 ng/ml Wnt3a (final DMSO concentration: 0.1%) After 4 days incubation at 37° C., 5% CO2, the amount of ATP per well is quantified. The ATP concentration is proportional to the cell number. ATP is quantified by using the Promega CellTiterGlo® kit. The CellTiterGlo® reagents contain a cell lysis buffer, a thermo stable luciferase (UltraGlo™ recombinant luciferase), magnesium and luciferin. Luciferin reacts with ATP producing oxyluciferin, AMP and light. The luminescence signal is proportional to the ATP content. The value of negative (neutral) control is determined for each assay plate by taking the average of 16 negative control wells. The neurogenic compound response is calculated for each compound as (compound/Negative Control)*100. The values of EC150 from the dose response curve are determined for each test compound. The EC150 is the compound concentration at which 150% activity of control (100%) is reached.

Row | Structure (SMILES) | EC (150% of control)
1 | Cc1ccc(-c2cncc3ncc(C(=O)NC(C)C(C)(C)O)nc23)cn1 (stereo not shown) [Example 51, N-(3-Hydroxy-3-methylbutan-2-yl)-8-(6-methylpyridin-3-yl)pyrido[4,3-b]pyrazine-2-carboxamide] | 0.08 µM
2 | NC(=O)c1cnc2cncc(-c3ccc(Cl)c(F)c3)c2n1 [Example 23, 8-(4-Chloro-3-fluorophenyl)pyrido[4,3-b]pyrazine-2-carboxamide] | 0.1 µM
3 | NC(=O)c1cnc2cncc(-c3ccc(C(F)(F)F)c(F)c3)c2n1 [Example 24, 8-(3-Fluoro-4-(trifluoromethyl)phenyl)pyrido[4,3-b]pyrazine-2-carboxamide] | 0.18 µM
4 | NC(=O)c1cnc2cncc(-c3cccc(C(F)(F)F)c3)c2n1 [Example 26, 8-(3-(Trifluoromethyl)phenyl)pyrido[4,3-b]pyrazine-2-carboxamide] | 0.43 µM
5 | CC(NC(=O)c1cnc2cncc(-c3ccc(C(F)(F)F)cc3)c2n1)C(C)(C)O (stereo not shown) [Example 6, N-(3-Hydroxy-3-methylbutan-2-yl)-8-(4-(trifluoromethyl)phenyl)pyrido[4,3-b]pyrazine-2-carboxamide] | 0.38 µM
6 | O=C(c1cnc2cncc(-c3cccc(OC(F)(F)F)c3)c2n1)N1CCC(O)C1 (stereo not shown) [Example 41, (3-Hydroxypyrrolidin-1-yl)(8-(3-(trifluoromethoxy)phenyl)pyrido[4,3-b]pyrazin-2-yl)methanone] | 0.6 µM
7 | O=C(NCc1ccccc1)c1cnc2cncc(-c3cccnc3)c2n1 [Example 31, N-Benzyl-8-(pyridin-3-yl)pyrido[4,3-b]pyrazine-2-carboxamide] | 0.47 µM
8 | O=C(c1cnc2cncc(-c3ccc(C(F)(F)F)cc3)c2n1)N1CCOCC1 [Example 10, Morpholino(8-(4-(trifluoromethyl)phenyl)pyrido[4,3-b]pyrazin-2-yl)methanone] | 2.96 µM
9 | NC(=O)c1cnc2cncc(-c3ccc(Cl)cc3Cl)c2n1 [Example 13, 8-(2,4-Dichlorophenyl)pyrido[4,3-b]pyrazine-2-carboxamide] | 0.28 µM
10 | O=C(c1cnc2cncc(-c3ccc(CO)cc3)c2n1)N1CCC(O)C1 (stereo not shown) [Example 48, (8-(4-(Hydroxymethyl)phenyl)pyrido[4,3-b]pyrazin-2-yl)(3-hydroxypyrrolidin-1-yl)methanone] | 0.67 µM
11 | O=C(c1cnc2cncc(-c3ccc(Cl)nc3)c2n1)N1CCC(O)C1 (stereo not shown) [Example 43, (8-(6-Chloropyridin-3-yl)pyrido[4,3-b]pyrazin-2-yl)(3-hydroxypyrrolidin-1-yl)methanone] | 0.03 µM
12 | NC(=O)c1cnc2cncc(-c3ccc(F)cc3)c2n1 [Example 14, 8-(4-Fluorophenyl)pyrido[4,3-b]pyrazine-2-carboxamide] | 0.1 µM
13 | O=C(c1cnc2cncc(-c3ccc(Cl)cc3)c2n1)N1CCS(=O)(=O)CC1 [Example 32, [8-(4-Chlorophenyl)pyrido[3,4-b]pyrazin-2-yl]-(1,1-dioxo-1,4-thiazinan-4-yl)methanone] | 0.84 µM
14 | NC(=O)c1cnc2cncc(-c3ccc(Cl)cc3F)c2n1 [Example 22, 8-(4-Chloro-2-fluorophenyl)pyrido[4,3-b]pyrazine-2-carboxamide] | 0.07 µM
15 | CC(NC(=O)c1cnc2cncc(-c3ccc(Cl)cc3Cl)c2n1)C(C)(C)O (stereo not shown) [Example 36, 8-(2,4-Dichlorophenyl)-N-(3-hydroxy-3-methylbutan-2-yl)pyrido[4,3-b]pyrazine-2-carboxamide] | 1.5 µM
16 | N#CC1(NC(=O)c2cnc3cncc(Br)c3n2)CC1 [Example 3, 8-Bromo-N-(1-cyanocyclopropyl)pyrido[4,3-b]pyrazine-2-carboxamide] | 2.32 µM
